We go through three molecules from patent US20130053407A1, “PYRROLO [3,2-D] PYRIMIDIN-3-YL DERIVATIVES USED AS ACTIVATORS OF AMPK” (GlaxoSmithKline LLC, priority 2010, published 2013).

One assay relates to Human recombinant AMPK. The assay is described as follows: AMPK Enzymatic Assay (Z'Lyte FRET). Type of assay: biochemical. The note with it: AMPK activation, ATP 100 μM, peptide 2 μM, means of at least 2 independent experiments. Here is the method:
Human recombinant AMPK (Invitrogen #PV4673 & #PV4675) is used in a FRET assay format (Z'Lyte—Invitrogen). Assay conditions are as follow: ATP 100 μM, peptide (Invitrogen #PR8650) 2 μM, 1% final DMSO in Z'Lyte kinase buffer. Reaction is initiated by addition of 0.2-0.8 ng of AMPK and incubated for 1-hour @ 30° C. A further 1-hour incubation @ 30° C. with the development reagent (Invitrogen #PR5194) is performed. FRET signal is then measured and converted to “% peptide phosphorylation” according to Z′Lyte given calculation procedure. Evaluation of compounds is carried out using concentration-response curves. Final data are expressed in “% activation” calculating the ratio of “% peptide phosphorylation” between compound-condition and basal-condition. […] All data are means of at least 2 independent experiments.

The test system of another assay is ob/ob and db/db mice. As to conditions: 8 day AICAR administration; cited from earlier work.

Usually pEC50 stands for the negative decadic logarithm of the EC50, by convention in mol/L.

With `Cc1cccc(-c2ccc(-n3c(Cl)cc4[nH]c(=O)n(-c5ccc(C#N)cc5)c(=O)c43)cc2)c1O` [4-[6-Chloro-5-(2′-hydroxy-3′-methyl-4-biphenylyl)-2,4-dioxo-1,2,4,5-tetrahydro-3H-pyrrolo[3,2-d]pyrimidin-3-yl]benzonitrile], in the assay on Human recombinant AMPK, the negative logarithm of the EC50 (pEC50) is given as 5.4. Regarding `COc1cccc(-c2ccc(-n3c(Cl)cc4[nH]c(=O)n(-c5cccc(F)c5)c(=O)c43)cc2)c1O` [6-Chloro-3-(3-fluorophenyl)-5-[2′-hydroxy-3′-(methyloxy)-4-biphenylyl]-1H-pyrrolo[3,2-d]pyrimidine-2,4(3H,5H)-dione], the pEC50 with Human recombinant AMPK was 5.3. Consider `NC(=O)c1ncn([C@@H]2O[C@H](CO)[C@@H](O)[C@H]2O)c1N` [AICAR], for which, in the assay with ob/ob and db/db mice, the reduces blood glucose is 35%.
